Measurements reported in ChEMBL document CHEMBL1275593 (2010).
≈ marks a conversion by molar mass, not a printed value.

Assays:
Bacillus anthracis [1] = assay: microbe, parasite or virus in culture; conditions: BA104
Bacillus anthracis [2] = assay: microbe, parasite or virus in culture; conditions: BA103

O=C(O)c1cn(C2CC2)c2cc(N3CCNCC3)c(F)cc2c1=O [CIPROFLOXACIN]
MIC (Bacillus anthracis [1]): 0.064 µg/mL (≈ 0.193 µM)
MIC (Bacillus anthracis [2]): 0.064 µg/mL (≈ 0.193 µM)
